Patent US8563511B2, “Treatment of pulmonary hypertension using an agent that inhibits a tissue factor pathway” (University of Rochester, priority 2004, dated 2013)

Key:
Male Sprague Dawley rats = assay: Induction of PAH by MCT after sham surgery or pneumonectomy in young rats; assay type: in vivo, rat; conditions: for pulmonary pressure (RVSP, mean PA): FIG. 1
Protocol: All animal studies were approved by the IACUC at the University of Rochester prior to the initiation of any animal experiments. Male Sprague Dawley rats weighing between 200 and 250 g were shaved and then endotracheally intubated with an 18 G angiocatheter after anesthesia with ketamine and xylazine (70 mg/kg ketamine and 50 mg/kg xylazine delivered intraperitoneal in 0.9% saline). Flunixin was administered 0.1 mg/kg SQ at the beginning of the case to provide 24 hours postoperative analgesia. Animals were ventilated (respiratory rate 70-90, adjusted while monitoring the animal to prevent spontaneous respiratory effort) at 10-12 cc/kg (Harvard Apparatus) and the left chest was prepared with Betadine scrub. The fourth or fifth intercostal space was identified, and an incision was made with care to avoid lung damage while ventilation was briefly interrupted. A rib retractor was used to expose the thoracic cavity, and the lung was lifted gently to expose the hilar structures. Two ligaclips (Ektacon LS200, Johnson & Johnson) were applied proximally before the left lung was cut at the distal hilar structure. A polyethylene tube with holes at the end and cut into the sides was inserted through the sixth intercostal space and laid in the thoracic cavity where the left lung had been. Two absorbable sutures were used to approximate the ribs, and then the muscles and subcutaneous tissue were approximated with an additional layer of sutures. Care was taken to carefully seal the thoracostomy tube with tissue so that the hole would close spontaneously when the thoracostomy tube was removed. Suction was applied to the tubing at the earliest possible time once a seal had been achieved (sometimes before the subcutaneous tissues were closed). Antisedan (Orion) was administered 0.2 mg/kg IM, and the skin was closed with 9 mm Autoclips (Stoelting). The animal was taken off the ventilator and monitored for spontaneous respirations while suction was applied to the thoracostomy tube. The rat was required to make significant respiratory effort and begin to right itself on the table before the endotracheal and thoracostomy tubes were removed. […] A 30 to 40% mortality is routinely encountered in the 24 hour perioperative period. For the sham surgery, an incision was made to the chest wall. With great care, ventilation was stopped, the chest was listed with forceps, and a small incision was made in the fourth or fifth intercostal space. If there was any evidence for lung damage, the case was converted to a pneumonectomy. A smaller polyethylene tube was inserted through the same hole and laid between the lung and the chest wall. The ribs were approximated with one or two sutures as appropriate. The remainder of the procedure was identical. The animal was ventilated for several minutes after the chest was closed but before sedation was reversed to make sure that total time under anesthesia was approximately the same as in pneumonectomy cases.
(§1) One week later, animals were given MCT (dissolved 60 mg/ml in DMSO) as a subcutaneous injection (vehicle animals were treated with the same volume of DMSO alone). They were monitored and allowed ordinary chow and water for 28 days (in the group of animals which were utilized to generate FIG. 2, two of the animals initially treated with pneumonectomy and MCT died spontaneously on days 18 and 23, so the remaining four animals were sacrificed at Day 24).
Exercise capacity was monitored 5 and 10 days after MCT treatment and then more frequently as the disease progressed. Rats were placed on a treadmill (Columbus Instruments) that stimulates them with a mild electric shock when they fail to run. Each assessment lasted for 16 min: 2 min. @ 10 m/min, 4 min @ 15 m/min, 5 min @ 20 m/min, and 5 min @ 25 m/min. The maximum distance run was 305 m. This procedure has been specifically approved by the local IACUC.
Initially, a grid intensity of 70% maximum and frequency of 2 Hz was used. […]

[1] = tested on: Pneum/MCT rats (rat model of severe pulmonary arterial hypertension); assay: Treatment of PAH in pneumonectomy + MCT young rat model; assay type: in vivo; conditions: bosentan 100 mg/kg daily
Protocol: All animal studies were approved by the IACUC at the University of Rochester prior to the initiation of any animal experiments. Male Sprague Dawley rats weighing between 200 and 250 g were shaved and then endotracheally intubated with an 18 G angiocatheter after anesthesia with ketamine and xylazine (70 mg/kg ketamine and 50 mg/kg xylazine delivered intraperitoneal in 0.9% saline). Flunixin was administered 0.1 mg/kg SQ at the beginning of the case to provide 24 hours postoperative analgesia. […] The animal was taken off the ventilator and monitored for spontaneous respirations while suction was applied to the thoracostomy tube. […]
as §1
Exercise capacity was monitored 5 and 10 days after MCT treatment and then more frequently as the disease progressed. […]

[2] = tested on: patients with pulmonary hypertension; conditions: cited from earlier work

C[C@H]1C(=O)O[C@@H]2CCN3CC=C(COC(=O)[C@](C)(O)[C@]1(C)O)[C@H]23 [MCT, monocrotaline]
(RV + S)/LV (Male Sprague Dawley rats; MCT after pneumonectomy): 1.8 ± 0.6
(RV + S)/Weight (Male Sprague Dawley rats; MCT after pneumonectomy): 2.7 ± 0.3
LV/Weight (Male Sprague Dawley rats; MCT after pneumonectomy): 1.6 ± 0.5
pulmonary pressure (RVSP, mean PA) (Male Sprague Dawley rats; MCT after pneumonectomy): near systemic elevations in pulmonary pressure
(RV + S)/LV (Male Sprague Dawley rats; MCT after sham surgery): 1.20 ± 0.3
(RV + S)/Weight (Male Sprague Dawley rats; MCT after sham surgery): 1.9 ± 0.4
LV/Weight (Male Sprague Dawley rats; MCT after sham surgery): 1.6 ± 0.2
pulmonary pressure (RVSP, mean PA) (Male Sprague Dawley rats; MCT following sham surgery): modest PAH
exercise capacity (16 min treadmill protocol) (Male Sprague Dawley rats; Pneum/MCT rats, by day 17 after MCT): unable to complete the 16 min protocol
exercise capacity (16 min treadmill protocol) (Male Sprague Dawley rats; Sham/MCT rats): consistently completed the exercise protocol

COc1ccccc1Oc1c(NS(=O)(=O)c2ccc(C(C)(C)C)cc2)nc(-c2ncccn2)nc1OCCO [bosentan]
PA pressure [1]: only a modest elevation in PA pressure

CC(=O)CC(c1ccccc1)c1c(O)c2ccccc2oc1=O (stereo not shown) [warfarin]
survival ([2]; Kawut et al., patients also on advanced therapies such as prostacyclin): survival benefit
mortality at 5 years ([2]; Rich et al., prospective observational trial): decreased mortality
